Source: patent US6720423B2, “Dihydrobenzofuran and dihydrobenzothiophene 2,4-pentadienoic acid derivatives having selective activity for retinoid X (RXR) receptors” (Allergan, Inc., priority 2002, dated 2004)

Tests used:
[1] = target: T1, RXRβ (UniProt P28704); experiment: ligand binding assay, RXRβ; set-up: other: RXRβ; last entry of cell; conditions: last entry of cell, read-out: RXR Bind Ki (nM) β
T1 sequence (P28704 1-520): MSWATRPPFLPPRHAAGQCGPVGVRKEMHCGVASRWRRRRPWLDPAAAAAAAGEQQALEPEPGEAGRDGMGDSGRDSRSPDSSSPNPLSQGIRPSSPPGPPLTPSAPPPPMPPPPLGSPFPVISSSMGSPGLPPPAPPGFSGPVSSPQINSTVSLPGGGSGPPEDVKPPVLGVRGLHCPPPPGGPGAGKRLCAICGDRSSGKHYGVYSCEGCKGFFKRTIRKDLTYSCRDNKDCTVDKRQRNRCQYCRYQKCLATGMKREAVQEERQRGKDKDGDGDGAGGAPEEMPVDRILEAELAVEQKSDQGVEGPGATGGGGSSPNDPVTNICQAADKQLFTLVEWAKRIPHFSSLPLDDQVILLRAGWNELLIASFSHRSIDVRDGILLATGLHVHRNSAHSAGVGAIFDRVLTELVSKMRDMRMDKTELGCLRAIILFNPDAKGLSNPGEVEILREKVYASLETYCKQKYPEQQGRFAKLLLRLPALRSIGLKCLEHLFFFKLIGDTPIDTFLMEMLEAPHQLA
Excerpt: (§1) A holoreceptor transactivation assay and a ligand binding assay which measure the antagonist/agonist like activity of the compounds of the invention, or their ability to bind to the several retinoid receptor subtypes, respectively, are described in published PCT Application No. WO WO93/11755 (particularly on pages 30-33 and 37-41) published on Jun. 24, 1993, the specification of which is also incorporated herein by reference. A detailed experimental procedure for holoreceptor transactivations has been described by Heyman et al. Cell 68, 397-406, (1992); Allegretto et al. J. Biol. Chem. 268, 26625-26633, and Mangelsdorf et al. The Retinoids: Biology, Chemistry and Medicine, pp 319-349, Raven Press Ltd., New York, which are expressly incorporated herein by reference. The results obtained in this assay are expressed in EC50 numbers, as they are also in the chimeric receptor transactivation assay. The results of ligand binding assay are expressed in Kd numbers. (See Cheng et al. Biochemical Pharmacology Vol. 22 pp 3099-3108, expressly incorporated herein by reference.)

[2] = target: T2, RXRγ (UniProt P28705); experiment: receptor transactivation assay, RXRγ; format: cell-based; set-up: RXR Trans; other: RXRγ; first entry of cell; conditions: for EC50: first entry of cell, read-out: RXR Trans. EC50 (nM) γ; for RXR Trans. γ, number in parentheses after EC50: parenthesised number, not defined in the patent
T2 sequence (P28705 1-463): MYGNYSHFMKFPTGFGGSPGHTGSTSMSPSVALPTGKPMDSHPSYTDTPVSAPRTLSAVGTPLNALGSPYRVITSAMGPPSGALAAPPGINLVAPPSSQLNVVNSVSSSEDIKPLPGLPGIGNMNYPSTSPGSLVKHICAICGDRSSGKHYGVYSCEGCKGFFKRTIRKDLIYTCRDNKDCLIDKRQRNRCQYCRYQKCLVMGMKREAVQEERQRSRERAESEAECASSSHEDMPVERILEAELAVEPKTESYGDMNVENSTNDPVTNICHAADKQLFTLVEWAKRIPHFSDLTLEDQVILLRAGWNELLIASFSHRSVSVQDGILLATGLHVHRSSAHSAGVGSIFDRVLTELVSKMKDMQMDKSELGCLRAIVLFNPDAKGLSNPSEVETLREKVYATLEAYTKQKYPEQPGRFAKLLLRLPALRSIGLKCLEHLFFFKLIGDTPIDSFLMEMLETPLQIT
Excerpt: as §1

[3] = target: T3, RXRα (Homo sapiens, UniProt P19793); experiment: ligand binding assay, RXRα; conditions: last entry of cell, read-out: RXR Bind Ki (nM) α
T3 sequence (P19793 1-462): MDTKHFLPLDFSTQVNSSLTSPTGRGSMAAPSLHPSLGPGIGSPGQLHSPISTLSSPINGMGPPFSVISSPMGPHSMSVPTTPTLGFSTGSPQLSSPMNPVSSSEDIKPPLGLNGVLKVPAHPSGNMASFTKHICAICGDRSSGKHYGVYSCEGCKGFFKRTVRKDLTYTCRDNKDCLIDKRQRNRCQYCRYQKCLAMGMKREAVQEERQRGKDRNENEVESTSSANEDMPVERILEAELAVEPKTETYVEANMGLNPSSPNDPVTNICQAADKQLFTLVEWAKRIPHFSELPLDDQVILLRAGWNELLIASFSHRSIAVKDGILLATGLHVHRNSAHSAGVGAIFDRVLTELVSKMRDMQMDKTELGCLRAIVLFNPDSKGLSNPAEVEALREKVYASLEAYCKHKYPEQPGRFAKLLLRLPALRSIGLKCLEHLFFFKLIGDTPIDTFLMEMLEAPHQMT
Excerpt: as §1

[4] = target: T4, RARγ (Homo sapiens, UniProt P13631); experiment: ligand binding assay, RARγ; conditions: second entry of cell, read-out: RAR Bind. Ki (nM) γ
T4 sequence (P13631 1-454): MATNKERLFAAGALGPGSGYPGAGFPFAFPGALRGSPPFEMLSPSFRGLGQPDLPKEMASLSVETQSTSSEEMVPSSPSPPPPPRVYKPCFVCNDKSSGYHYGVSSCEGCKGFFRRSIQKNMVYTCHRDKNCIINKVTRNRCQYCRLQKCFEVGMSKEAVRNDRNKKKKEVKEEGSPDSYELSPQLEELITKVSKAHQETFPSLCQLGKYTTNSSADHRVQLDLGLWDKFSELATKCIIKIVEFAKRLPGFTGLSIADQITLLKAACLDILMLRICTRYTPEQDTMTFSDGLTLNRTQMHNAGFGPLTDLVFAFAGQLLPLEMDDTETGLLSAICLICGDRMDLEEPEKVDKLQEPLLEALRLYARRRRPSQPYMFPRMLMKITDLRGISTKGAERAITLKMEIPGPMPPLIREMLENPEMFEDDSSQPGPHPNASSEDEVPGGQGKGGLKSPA
Excerpt: as §1

| SMILES | Ki [1] | EC50 [2] | RXR Trans. γ, number in parentheses after EC50 [2] | Ki [3] | Ki [4] |
| --- | --- | --- | --- | --- | --- |
| CC(/C=C/[C@@H]1C[C@]1(C)c1cc(-c2c(C)cccc2C)c2c(c1)C(C)(C)CO2)=C\C(=O)O [Compound 24, 5-{(1 S 2S)-2-[7-(2,6-Dimethyl-phenyl)-3,3-dimethyl-2,3-dihydro-benzofuran-5-yl]-2-methyl-cyclopropyl}-3-methyl-penta-2E,4E-dienoic acid] | 2.6 nM | 0.86 nM | 105 | 0.7 nM | > 10000 nM |
| CC(/C=C/[C@@H]1C[C@]1(C)c1ccc2c(c1)C(C)(C)CO2)=C\C(=O)O [Compound 2, (6S,7S)-7-[5-(3,3-Dimethyl-2,3-dihydro-benzofuranyl)]-6.7-methano-3-methyl-octa-2E,4E-dienoic Acid] | 21.1 nM | 2.7 nM | 119 | 7.8 nM | > 10000 nM |
| CC(/C=C/[C@@H]1C[C@]1(C)c1cc(-c2ccc(F)cc2)c2c(c1)C(C)(C)CO2)=C\C(=O)O [Compound 34, (E)-3-((E)-2-{(1S,2S)-2-[7-(4-Fluoro-phenyl)-3,3-dimethyl-2,3-dihydro-benzofuran-5-yl]-2-methyl-cyclopropyl}-vinyl)-but-2-enoic acid] | 4 nM | 0.56 nM | 109 | 0.5 nM | 25000 nM |
| CC(/C=C/[C@@H]1C[C@]1(C)c1cc(C)c2c(c1)C(C)(C)CO2)=C\C(=O)O [Compound 4, (6S,7S)-7-[5-(3,3,7-Trimethyl-2,3-dihydro-benzofuranyl)]-6,7-methano-3-methyl-octa-2E,4E-dienoic acid] | 74 nM | 4.4 nM | 108 | 6.3 nM | > 10000 nM |
| CC(/C=C/[C@@H]1C[C@]1(C)c1cc(C(C)C)c2c(c1)C(C)(C)CO2)=C\C(=O)O [Compound 8, (6S,7S)-7-[5-(3,3-Dimethyl-7-iso-propyl-2,3-dihydro-benzofuranyl)]-6,7-methano-3-methyl-octa-2E,4E-dienoic Acid] | 10.6 nM | 0.23 nM | 108 | 1.7 nM | 7510 nM |
| CCCCCCCc1ccccc1-c1cc([C@@]2(C)C[C@H]2/C=C/C(C)=C/C(=O)O)cc2c1OCC2(C)C [Compound 28] | 111 nM | 850 nM | 88 | 35 nM | 9540 nM |
| CC(/C=C/[C@@H]1C[C@]1(C)c1cc(C(C)(C)C)c2c(c1)C(C)(C)CO2)=C\C(=O)O [Compound 10, (6S,7S)-7-[5-(3,3-Dimethyl-7-t-butyl-2,3-dihydro-benzofuranyl)]-6,7-methano-3-methyl-octa-2E,4E-dienoic acid] | 7.1 nM | 0.78 nM | 95 | 0.8 nM | 13000 nM |
| CCCCC(O)CCc1cc([C@@]2(C)C[C@H]2/C=C/C(C)=C/C(=O)O)cc2c1OCC2(C)C (stereo partly drawn) [Compound 38, (E)-3-((E)-2-{(1S,2S)-2-[7-(3-Hydroxy-heptyl)-3,3-dimethyl-2,3-dihydro-benzofuran-5-yl]-2-methyl-cyclopropyl}-vinyl)-but-2-enoic acid] | 557 nM | 7680 nM | 142 | 306 nM | > 10000 nM |
| CCCCC(=O)CCc1cc([C@@]2(C)C[C@H]2/C=C/C(C)=C/C(=O)O)cc2c1OCC2(C)C [Compound 40] | 69 nM | 395 nM | 94 | 41 nM | > 10000 nM |
| CC(/C=C/[C@@H]1C[C@]1(C)c1cc(CC(C)(C)C)c2c(c1)C(C)(C)CO2)=C\C(=O)O [Compound 12, 5-{(1S,2S) 2-[7-(2,2-Dimethyl-propyl)-3,3-dimethyl-2,3-dihydro-benzofuran-5-yl]-2-methyl-cyclopropyl}-3-methyl-penta-2E,4E-dienoic Acid] | 1.5 nM | 0.42 nM | 101 | 0.2 nM | 8910 nM |
| CC(/C=C/[C@@H]1C[C@]1(C)c1cc(-c2ccc(C(C)(C)C)cc2)c2c(c1)C(C)(C)CO2)=C\C(=O)O [Compound 30, 5-{(1S, 2S)-2-[7-(4-tert-Butyl-phenyl)-3,3-dimethyl-2,3-dihydro-benzofuran-5-]-2-methyl-cyclopropyl}-3-methyl-pent-2E,4E-dienoic Acid] | 441 nM | > 1000 nM | 80 | 129 nM | > 10000 nM |
| CC(/C=C/[C@@H]1C[C@]1(C)c1cc(CC2CCCCC2)c2c(c1)C(C)(C)CO2)=C\C(=O)O [Compound 16, (6S,7S)-7-[5-(7-Cyclohexylmethyl-3,3-dimethyl-2,3-dihydro-benzofuranyl)]-6,7-methano-3-methyl-octa-2E,4E-dienoic Acid] | 1.9 nM | 0.29 nM | 83 | 0.3 nM | 12000 nM |
| CC(/C=C/[C@@H]1C[C@]1(C)c1cc(Cc2ccccc2)c2c(c1)C(C)(C)CO2)=C\C(=O)O [Compound 14, (6S,7S)-7-[5-(7-Benzyl-3,3-dimethyl-2,3-dihydro-benzofuranyl)]-6,7-methano-3-methyl-octa-2E,4E-dienoic Acid] | 1.1 nM | 0.0973 nM | 105 | 0.8 nM | 6650 nM |
| CCc1cc([C@@]2(C)C[C@H]2/C=C/C(C)=C/C(=O)O)cc2c1OCC2(C)C [Compound 6] | 1.8 nM | 0.56 nM | 85 | 0.72 nM | 13000 nM |
| CC(/C=C/[C@@H]1C[C@]1(C)c1cc(-c2ccccc2C)c2c(c1)C(C)(C)CO2)=C\C(=O)O [Compound 26, 5-[(1S,2S)-2-(3,3-Dimethyl-7-o-tolyl-2,3-dihydro-benzofuran-5-yl)-2-methyl-cyclopropyl]-3-methyl-penta-2E,4E-dienoic acid] | 1.9 nM | 0.32 nM | 107 | 1.2 nM | > 10000 nM |
